Experiments:
Type in all cases: biochemical
PKR WT = PKR WT (Homo sapiens, UniProt P30613); assay: PKR WT enzymatic AC50 assay; details: wild type PKR
Description: (§1) • PKR or PKR mutant enzyme solution was diluted in assay buffer. • 2 μL of test compound was added into wells first, and then 180 μL reaction mix was added. • Reactions mixture with test compound was assembled except for ADP, and plates were stored for 60 minutes at room temperature. • 20 uL ADP was added to start reaction at room temperature and reaction progress was measured as changes in absorbance at 340 nm wavelength at room temperature.
(§2) Test Compound Preparation: • Test compound stock was made at 100× concentration in 100% DMSO (10 mM) • 1 to 3 dilutions were made for 11 points (i.e. 50 μl of first concentration added to 100 μl 100% DMSO to yield 3.33 mM, 50 μl of this added to 100 μl DMSO to yield 1.11 mM, and so forth) • 1 to 100 dilution into assay (2 μl in 200 μl) yielded starting concentration of 100 μM, decreasing 3 fold for 11 points. Assay Buffer: 100 mM KCl, 50 mM Tris 7.5, 5 mM MgCl2, 1 mM DTT, 0.03% BSA Reaction Mixture: PKR mutant enzyme: 80-400 ng/well; ADP: 0.22-1.65 mM; PEP: 0.1-0.5 mM; NADH: 180 uM; LDH: 0.5 units (Sigma#59023); DTT: 1 mM; BSA: 0.03%.

PKR R532W = PKR R532W (Homo sapiens, UniProt P30613, R532W); assay: PKR Mutant Assay, AC50 against PKR R532W; details: mutant PKR R532W enzyme
Chain of PKR R532W (P30613 whole entry R532W): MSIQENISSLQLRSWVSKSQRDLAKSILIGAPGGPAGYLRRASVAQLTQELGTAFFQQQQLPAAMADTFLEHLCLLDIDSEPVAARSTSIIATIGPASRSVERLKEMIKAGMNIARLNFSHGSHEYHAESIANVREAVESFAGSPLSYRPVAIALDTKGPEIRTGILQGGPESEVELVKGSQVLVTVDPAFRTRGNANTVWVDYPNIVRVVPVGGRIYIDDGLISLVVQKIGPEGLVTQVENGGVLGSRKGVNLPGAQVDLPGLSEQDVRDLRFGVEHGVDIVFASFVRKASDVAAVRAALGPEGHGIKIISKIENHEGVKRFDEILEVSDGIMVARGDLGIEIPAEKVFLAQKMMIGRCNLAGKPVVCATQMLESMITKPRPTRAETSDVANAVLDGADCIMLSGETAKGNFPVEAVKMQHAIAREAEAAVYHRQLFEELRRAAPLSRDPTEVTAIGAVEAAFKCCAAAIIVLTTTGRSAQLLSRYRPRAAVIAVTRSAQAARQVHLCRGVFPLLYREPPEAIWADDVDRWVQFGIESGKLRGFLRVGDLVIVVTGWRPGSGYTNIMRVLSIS
Description: as §1, §2

PKR R510Q = PKR R510Q (Homo sapiens, UniProt P30613, R510Q); assay: PKR Mutant Assay, AC50 against PKR R510Q; details: mutant PKR R510Q enzyme
Chain of PKR R510Q (P30613 whole entry R510Q): as the sequence (P30613 whole entry R532W) above, with R510Q, W532R counted along it
Description: as §1, §2

Chain of PKR WT (P30613 whole entry): as the sequence (P30613 whole entry R532W) above, with W532R counted along it

AC50 (PKR WT) [nM]	AC50 (PKR R532W) [nM]	AC50 (PKR R510Q) [nM]	Structure (SMILES)
101 to 1000	101 to 1000	1010 to 10000	O=C(c1ccc(NS(=O)(=O)c2cccc3csnc23)cc1)N1CCC(O)(c2ccccc2Cl)CC1 [Compound 244, N-(4-(4-(2-chlorophenyl)-4-hydroxypiperidine-1-carbonyl)phenyl)benzo[c]isothiazole-7-sulfonamide]
101 to 1000	< 100	1010 to 10000	CCOCC1(O)CCN(C(=O)c2ccc(NS(=O)(=O)c3cccc4cccnc34)cc2)CC1 [Compound 246, N-(4-(4-(ethoxymethyl)-4-hydroxypiperidine-1-carbonyl)phenyl)quinoline-8-sulfonamide]
101 to 1000	101 to 1000	1010 to 10000	O=C(c1ccc(NS(=O)(=O)c2cccc3cccnc23)cc1)N1CCC(O)(c2ccnc(F)c2)CC1 [Compound 247, N-[4-[4-(2-fluoropyridin-4-yl)-4-hydroxy-piperidine-1-carbonyl]phenyl]quinoline-8-sulfonamide]
101 to 1000	101 to 1000	1010 to 10000	O=C(c1ccc(NS(=O)(=O)c2cccc3cccnc23)cc1)N1CCC(O)(CCCO)CC1 [Compound 253, N-(4-(4-hydroxy-4-(3-hydroxypropyl)piperidine-1-carbonyl)phenyl)quinoline-8-sulfonamide]
101 to 1000	101 to 1000	1010 to 10000	N#Cc1ccc(C2(O)CCN(C(=O)c3ccc(NS(=O)(=O)c4cccc5cccnc45)cc3)CC2)cc1 [Compound 255, N-[4-[4-(4-cyanophenyl)-4-hydroxy-piperidine-1-carbonyl]phenyl]quinoline-8-sulfonamide]
101 to 1000	101 to 1000	101 to 1000	N#Cc1cc(NS(=O)(=O)c2cccc3cccnc23)ccc1C(=O)N1CCC(O)(c2ccccc2)CC1 [Compound 261, N-(3-cyano-4-(4-hydroxy-4-phenylpiperidine-1-carbonyl)phenyl)quinoline-8-sulfonamide]
101 to 1000	101 to 1000	1010 to 10000	Cc1cccc(C2(O)CCN(C(=O)c3ccc(NS(=O)(=O)c4cccc5cccnc45)cc3)CC2)n1 [Compound 265, N-[4-[4-hydroxy-4-(6-methylpyridin-2-yl)piperidine-1-carbonyl]phenyl]quinoline-8-sulfonamide]
101 to 1000	101 to 1000	1010 to 10000	N#Cc1ccccc1C1(O)CCN(C(=O)c2ccc(NS(=O)(=O)c3cccc4cccnc34)cc2)CC1 [Compound 266, N-(4-(4-(2-cyanophenyl)-4-hydroxypiperidine-1-carbonyl)phenyl)quinoline-8-sulfonamide]
101 to 1000	101 to 1000	1010 to 10000	CCC1(O)CCN(C(=O)c2ccc(NS(=O)(=O)c3cccc4cccnc34)cc2)CC1 [Compound 267]
101 to 1000	101 to 1000	1010 to 10000	O=C(c1ccc(NS(=O)(=O)c2cccc3cccnc23)cc1)N1CCC(O)(Cc2cccnn2)CC1 [Compound 272]
101 to 1000	101 to 1000	1010 to 10000	O=C(c1ccc(NS(=O)(=O)c2cccc3cccnc23)cc1)N1CCC(O)(CCO)CC1 [Compound 274]
101 to 1000	101 to 1000	1010 to 10000	CC(O)CC1(O)CCN(C(=O)c2ccc(NS(=O)(=O)c3cccc4cccnc34)cc2)CC1 (stereo not drawn) [Compound 275]

The next lines start with the compound.

Structure (SMILES)	AC50 (PKR WT) [nM]	AC50 (PKR R532W) [nM]	AC50 (PKR R510Q) [nM]
CC(C)CC1(O)CCN(C(=O)c2ccc(NS(=O)(=O)c3ccc(F)c4scnc34)cc2)CC1 [Compound 240, 7-fluoro-N-(4-(4-hydroxy-4-isobutylpiperidine-1-carbonyl)phenyl)benzo[d]thiazole-4-sulfonamide]	101 to 1000	101 to 1000	101 to 1000
CC(C)CC1(O)CCN(C(=O)c2ccc(NS(=O)(=O)c3ccc(F)c4nccnc34)cc2)CC1 [Compound 242]	101 to 1000	101 to 1000	101 to 1000
O=C(c1ccc(NS(=O)(=O)c2cccc3nccnc23)c(F)c1)N1CCC(O)(c2ccccc2Cl)CC1 [Compound 251, N-(4-(4-(2-chlorophenyl)-4-hydroxypiperidine-1-carbonyl)-2-fluorophenyl)quinoxaline-5-sulfonamide]	101 to 1000	101 to 1000	101 to 1000
CC(C)CC1(O)CCN(C(=O)c2ccc(NS(=O)(=O)c3ccc(F)c(N)c3N)cc2)CC1 [Compound 254, 2,3-diamino-4-fluoro-N-(4-(4-hydroxy-4-isobutylpiperidine-1-carbonyl)phenyl)benzenesulfonamide]	101 to 1000	101 to 1000	101 to 1000
Nc1c(F)ccc(S(=O)(=O)Nc2ccc(C(=O)N3CCC(O)(c4ccccc4Cl)CC3)cc2)c1N [Compound 256, 2,3-diamino-N-(4-(4-(2-chlorophenyl)-4-hydroxypiperidine-1-carbonyl)phenyl)-4-fluorobenzenesulfonamide]	101 to 1000	101 to 1000	1010 to 10000
CC(C)CC1(O)CCN(C(=O)c2ccc(NS(=O)(=O)c3cccc4csnc34)cc2)CC1 [Compound 257]	101 to 1000	101 to 1000	1010 to 10000
CC(C)CC1(O)CCN(C(=O)c2ccc(NS(=O)(=O)c3cccc4cccnc34)c(C(F)F)c2)CC1 [Compound 258]	101 to 1000	101 to 1000	101 to 1000
O=C(c1ccc(NS(=O)(=O)c2cccc3nc(F)ccc23)cc1)N1CCC(O)(c2ccccc2Cl)CC1 [Compound 259, N-(4-(4-(2-chlorophenyl)-4-hydroxypiperidine-1-carbonyl)phenyl)-2-fluoroquinoline-5-sulfonamide]	101 to 1000	101 to 1000	1010 to 10000
O=C(c1ccc(NS(=O)(=O)c2cccc3nccnc23)c(F)c1)N1CCC(O)(c2cccc(F)c2F)CC1 [Compound 262, N-(4-(4-(2,3-difluorophenyl)-4-hydroxypiperidine-1-carbonyl)-2-fluorophenyl)quinoxaline-5-sulfonamide]	101 to 1000	101 to 1000	101 to 1000
O=C(c1ccc(NS(=O)(=O)c2cccc3cccnc23)c(OC(F)F)c1)N1CCC(O)(c2ccccc2Cl)CC1 [Compound 263, N-(4-(4-(2-chlorophenyl)-4-hydroxypiperidine-1-carbonyl)-2-(difluoromethoxy)phenyl)quinoline-8-sulfonamide]	101 to 1000	101 to 1000	101 to 1000
CN1C(=O)C=C2C=C(S(=O)(=O)Nc3ccc(C(=O)N4CCC(O)(Cc5ccccc5)CC4)cc3)C=CC21 (stereo not drawn) [Compound 268]	101 to 1000	101 to 1000	1010 to 10000
CC(C)CC1(O)CCN(C(=O)c2ccc(NS(=O)(=O)c3csc4cccnc34)cc2)CC1 [Compound 269]	101 to 1000	101 to 1000	1010 to 10000
O=C(c1ccc(NS(=O)(=O)c2cccc3cccnc23)c(OC(F)(F)F)c1)N1CCC(O)(c2ccccc2Cl)CC1 [Compound 270]	101 to 1000	101 to 1000	1010 to 10000
O=C(c1ccc(NS(=O)(=O)c2cccc3scnc23)cc1)N1CCC(O)(c2ccccc2-c2ccccc2Cl)CC1 [Compound 271]	101 to 1000	101 to 1000	1010 to 10000
N#Cc1cc(C(=O)N2CCC(O)(c3ccccc3Cl)CC2)ccc1NS(=O)(=O)c1cccc2cccnc12 [Compound 273]	101 to 1000	101 to 1000	1010 to 10000

— US9108921B2, “Therapeutic compounds and compositions” (AGIOS PHARMACEUTICALS, INC, priority 2014, dated 2015)
